Experiments:
Format in all cases: in vivo
[1] = tested on: Italian ryegrass (Lolium multiflorum); assay: Test A preemergence, directed soil spray; conditions: approx. 10 days
Text: (§1) Seeds of plant species selected from barnyardgrass (Echinochloa crus-galli), kochia (Kochia scoparia), ragweed (common ragweed, Ambrosia elatior), Italian ryegrass (Lolium multiflorum), giant foxtail (Setaria faberii), and pigweed (Amaranthus retroflexus) were planted into a blend of loam soil and sand and treated preemergence with a directed soil spray using test chemicals formulated in a non-phytotoxic solvent mixture which included a surfactant. At the same time, plants selected from these weed species and also wheat (Triticum aestivum), corn (Zea mays), blackgrass (Alopecurus myosuroides), and galium (catchweed bedstraw, Galium aparine) were planted in pots containing the same blend of loam soil and sand and treated with postemergence applications of test chemicals formulated in the same manner. Plants ranged in height from 2 to 10 cm and were in the one- to two-leaf stage for the postemergence treatment. Treated plants and untreated controls were maintained in a greenhouse for approximately 10 days, after which time all treated plants were compared to untreated controls and visually evaluated for injury. Plant response ratings, summarized in Table A, are based on a 0 to 100 scale where 0 is no effect and 100 is complete control. A dash (-) response means no test result.

[2] = tested on: barnyardgrass (Echinochloa crus-galli); assay: Test A preemergence, directed soil spray; conditions: approx. 10 days
Text: as §1

[3] = tested on: giant foxtail (Setaria faberii); assay: Test A preemergence, directed soil spray; conditions: approx. 10 days
Text: as §1

kochia (Kochia scoparia) [4] = assay: Test A preemergence, directed soil spray; conditions: approx. 10 days
Text: as §1

[5] = tested on: pigweed (Amaranthus retroflexus); assay: Test A preemergence, directed soil spray; conditions: approx. 10 days
Text: as §1

[6] = tested on: ragweed (common ragweed, Ambrosia elatior); assay: Test A preemergence, directed soil spray; conditions: approx. 10 days
Text: as §1

[7] = tested on: Italian ryegrass (Lolium multiflorum); assay: Test A postemergence application; conditions: approx. 10 days
Text: as §1

[8] = tested on: barnyardgrass (Echinochloa crus-galli); assay: Test A postemergence application; conditions: approx. 10 days
Text: as §1

[9] = tested on: blackgrass (Alopecurus myosuroides); assay: Test A postemergence application; conditions: approx. 10 days
Text: as §1

corn (Zea mays) = assay: Test A postemergence application; conditions: approx. 10 days
Text: as §1

[10] = tested on: galium (catchweed bedstraw, Galium aparine); assay: Test A postemergence application; conditions: approx. 10 days
Text: as §1

[11] = tested on: giant foxtail (Setaria faberii); assay: Test A postemergence application; conditions: approx. 10 days
Text: as §1

kochia (Kochia scoparia) [12] = assay: Test A postemergence application; conditions: approx. 10 days
Text: as §1

[13] = tested on: pigweed (Amaranthus retroflexus); assay: Test A postemergence application; conditions: approx. 10 days
Text: as §1

[14] = tested on: ragweed (common ragweed, Ambrosia elatior); assay: Test A postemergence application; conditions: approx. 10 days
Text: as §1

[15] = tested on: wheat (Triticum aestivum); assay: Test A postemergence application; conditions: approx. 10 days
Text: as §1

[16] = tested on: barnyardgrass (Echinochloa crus-galli); assay: Test B flooded paddy test; set-up: key: 0 = no effect, 100 = complete control; conditions: Flood, 250 g ai/ha applied to paddy water at 2-leaf stage; visually evaluated after 13 to 15 days; scale 0 (no effect) to 100 (complete control)
Procedure: (§2) Plant species in the flooded paddy test selected from rice (Oryza sativa), sedge, umbrella (small-flower umbrella sedge, Cyperus difformis), ducksalad (Heteranthera limosa), and barnyardgrass (Echinochloa crus-galli) were grown to the 2-leaf stage for testing. At time of treatment, test pots were flooded to 3 cm above the soil surface, treated by application of test compounds directly to the paddy water, and then maintained at that water depth for the duration of the test. Treated plants and controls were maintained in a greenhouse for 13 to 15 days, after which time all species were compared to controls and visually evaluated. Plant response ratings, summarized in Table B, are based on a scale of 0 to 100 where 0 is no effect and 100 is complete control. A dash (-) response means no test result.

[17] = tested on: ducksalad (Heteranthera limosa); assay: Test B flooded paddy test; set-up: key: 0 = no effect, 100 = complete control; conditions: Flood, 250 g ai/ha applied to paddy water at 2-leaf stage; visually evaluated after 13 to 15 days; scale 0 (no effect) to 100 (complete control)
Procedure: as §2

rice (Oryza sativa) = assay: Test B flooded paddy test; set-up: key: 0 = no effect, 100 = complete control; conditions: Flood, 250 g ai/ha applied to paddy water at 2-leaf stage; visually evaluated after 13 to 15 days; scale 0 (no effect) to 100 (complete control)
Procedure: as §2

[18] = tested on: sedge, umbrella (small-flower umbrella sedge, Cyperus difformis); assay: Test B flooded paddy test; set-up: key: 0 = no effect, 100 = complete control; conditions: Flood, 250 g ai/ha applied to paddy water at 2-leaf stage; visually evaluated after 13 to 15 days; scale 0 (no effect) to 100 (complete control)
Procedure: as §2

SMILES | Plant response rating (0 to 100 scale, 0 no effect, 100 complete control), Ryegrass, Italian ([1]; 31 g ai/ha) | Plant response rating (0 to 100 scale, 0 no effect, 100 complete control), Ryegrass, Italian ([1]; 125 g ai/ha) | Plant response rating (0 to 100 scale, 0 no effect, 100 complete control), Barnyardgrass ([2]; 31 g ai/ha) | Plant response rating (0 to 100 scale, 0 no effect, 100 complete control), Barnyardgrass ([2]; 125 g ai/ha) | Plant response rating (0 to 100 scale, 0 no effect, 100 complete control), Foxtail, Giant ([3]; 31 g ai/ha) | Plant response rating (0 to 100 scale, 0 no effect, 100 complete control), Foxtail, Giant ([3]; 125 g ai/ha) | Plant response rating (0 to 100 scale, 0 no effect, 100 complete control), Kochia (kochia (Kochia scoparia) [4]; 31 g ai/ha) | Plant response rating (0 to 100 scale, 0 no effect, 100 complete control), Kochia (kochia (Kochia scoparia) [4]; 125 g ai/ha) | Plant response rating (0 to 100 scale, 0 no effect, 100 complete control), Pigweed ([5]; 31 g ai/ha) | Plant response rating (0 to 100 scale, 0 no effect, 100 complete control), Pigweed ([5]; 125 g ai/ha) | Plant response rating (0 to 100 scale, 0 no effect, 100 complete control), Ragweed ([6]; 31 g ai/ha) | Plant response rating (0 to 100 scale, 0 no effect, 100 complete control), Ragweed ([6]; 125 g ai/ha) | Plant response rating (0 to 100 scale, 0 no effect, 100 complete control), Ryegrass, Italian ([7]; 31 g ai/ha) | Plant response rating (0 to 100 scale, 0 no effect, 100 complete control), Ryegrass, Italian ([7]; 125 g ai/ha) | Plant response rating (0 to 100 scale, 0 no effect, 100 complete control), Barnyardgrass ([8]; 31 g ai/ha) | Plant response rating (0 to 100 scale, 0 no effect, 100 complete control), Barnyardgrass ([8]; 125 g ai/ha) | Plant response rating (0 to 100 scale, 0 no effect, 100 complete control), Blackgrass ([9]; 31 g ai/ha) | Plant response rating (0 to 100 scale, 0 no effect, 100 complete control), Blackgrass ([9]; 125 g ai/ha) | Plant response rating (0 to 100 scale, 0 no effect, 100 complete control), Corn (corn (Zea mays); 31 g ai/ha) | Plant response rating (0 to 100 scale, 0 no effect, 100 complete control), Corn (corn (Zea mays); 125 g ai/ha) | other results
O=c1cccc(Oc2ncc(Cl)cn2)n1-c1ncc(F)cn1 [Compound 4] | 0 | 0 | 0 | 0 | 0 | 20 | 0 | 70 | 70 | 70 | 0 | 0 | 0 | 0 | 0 | 0 | 20 | 20 | 0 | 10 | Plant response rating (0 to 100 scale, 0 no effect, 100 complete control), Galium ([10]; 31 g ai/ha): 30; Plant response rating (0 to 100 scale, 0 no effect, 100 complete control), Galium ([10]; 125 g ai/ha): 50; Plant response rating (0 to 100 scale, 0 no effect, 100 complete control), Foxtail, Giant ([11]; 31 g ai/ha): 0; Plant response rating (0 to 100 scale, 0 no effect, 100 complete control), Foxtail, Giant ([11]; 125 g ai/ha): 0; Plant response rating (0 to 100 scale, 0 no effect, 100 complete control), Kochia (kochia (Kochia scoparia) [12]; 31 g ai/ha): 40; Plant response rating (0 to 100 scale, 0 no effect, 100 complete control), Kochia (kochia (Kochia scoparia) [12]; 125 g ai/ha): 80; Plant response rating (0 to 100 scale, 0 no effect, 100 complete control), Pigweed ([13]; 31 g ai/ha): 50; Plant response rating (0 to 100 scale, 0 no effect, 100 complete control), Pigweed ([13]; 125 g ai/ha): 70; Plant response rating (0 to 100 scale, 0 no effect, 100 complete control), Ragweed ([14]; 31 g ai/ha): 10; Plant response rating (0 to 100 scale, 0 no effect, 100 complete control), Ragweed ([14]; 125 g ai/ha): 20; Plant response rating (0 to 100 scale, 0 no effect, 100 complete control), Wheat ([15]; 31 g ai/ha): 0; Plant response rating (0 to 100 scale, 0 no effect, 100 complete control), Wheat ([15]; 125 g ai/ha): 0; Plant response rating, Barnyardgrass [16]: 0; Plant response rating, Ducksalad [17]: 0; Plant response rating, Rice (rice (Oryza sativa)): 0; Plant response rating, Sedge, Umbrella [18]: 0
O=c1cccc(Oc2ncc(Cl)cn2)n1-c1ncc(C(F)(F)F)cn1 [Compound 5] | 0 | 0 | 0 | 80 | 70 | 100 | 0 | 100 | 90 | 100 | 0 | 80 | 0 | 30 | 0 | 20 | 30 | 50 | 0 | 10 | Plant response rating (0 to 100 scale, 0 no effect, 100 complete control), Galium ([10]; 31 g ai/ha): 50; Plant response rating (0 to 100 scale, 0 no effect, 100 complete control), Galium ([10]; 125 g ai/ha): 90; Plant response rating (0 to 100 scale, 0 no effect, 100 complete control), Foxtail, Giant ([11]; 31 g ai/ha): 10; Plant response rating (0 to 100 scale, 0 no effect, 100 complete control), Foxtail, Giant ([11]; 125 g ai/ha): 80; Plant response rating (0 to 100 scale, 0 no effect, 100 complete control), Kochia (kochia (Kochia scoparia) [12]; 31 g ai/ha): 40; Plant response rating (0 to 100 scale, 0 no effect, 100 complete control), Kochia (kochia (Kochia scoparia) [12]; 125 g ai/ha): 60; Plant response rating (0 to 100 scale, 0 no effect, 100 complete control), Pigweed ([13]; 31 g ai/ha): 70; Plant response rating (0 to 100 scale, 0 no effect, 100 complete control), Pigweed ([13]; 125 g ai/ha): 90; Plant response rating (0 to 100 scale, 0 no effect, 100 complete control), Ragweed ([14]; 31 g ai/ha): 30; Plant response rating (0 to 100 scale, 0 no effect, 100 complete control), Ragweed ([14]; 125 g ai/ha): 80; Plant response rating (0 to 100 scale, 0 no effect, 100 complete control), Wheat ([15]; 31 g ai/ha): 0; Plant response rating (0 to 100 scale, 0 no effect, 100 complete control), Wheat ([15]; 125 g ai/ha): 0; Plant response rating, Barnyardgrass [16]: 0; Plant response rating, Ducksalad [17]: 85; Plant response rating, Rice (rice (Oryza sativa)): 0; Plant response rating, Sedge, Umbrella [18]: 75
O=c1cccc(Oc2ncc(Cl)cn2)n1-c1ccc(Cl)cn1 [Compound 8] | 0 | 10 | 0 | 30 | 40 | 80 | 30 | 100 | 70 | 100 | 0 | 20 | 10 | 20 | 10 | 30 | 10 | 20 | 10 | 20 | Plant response rating (0 to 100 scale, 0 no effect, 100 complete control), Galium ([10]; 31 g ai/ha): 60; Plant response rating (0 to 100 scale, 0 no effect, 100 complete control), Galium ([10]; 125 g ai/ha): 70; Plant response rating (0 to 100 scale, 0 no effect, 100 complete control), Foxtail, Giant ([11]; 31 g ai/ha): 20; Plant response rating (0 to 100 scale, 0 no effect, 100 complete control), Foxtail, Giant ([11]; 125 g ai/ha): 70; Plant response rating (0 to 100 scale, 0 no effect, 100 complete control), Kochia (kochia (Kochia scoparia) [12]; 31 g ai/ha): 70; Plant response rating (0 to 100 scale, 0 no effect, 100 complete control), Kochia (kochia (Kochia scoparia) [12]; 125 g ai/ha): 90; Plant response rating (0 to 100 scale, 0 no effect, 100 complete control), Pigweed ([13]; 31 g ai/ha): 80; Plant response rating (0 to 100 scale, 0 no effect, 100 complete control), Pigweed ([13]; 125 g ai/ha): 90; Plant response rating (0 to 100 scale, 0 no effect, 100 complete control), Ragweed ([14]; 31 g ai/ha): 30; Plant response rating (0 to 100 scale, 0 no effect, 100 complete control), Ragweed ([14]; 125 g ai/ha): 70; Plant response rating (0 to 100 scale, 0 no effect, 100 complete control), Wheat ([15]; 31 g ai/ha): 0; Plant response rating (0 to 100 scale, 0 no effect, 100 complete control), Wheat ([15]; 125 g ai/ha): 0; Plant response rating, Barnyardgrass [16]: 0; Plant response rating, Ducksalad [17]: 75; Plant response rating, Rice (rice (Oryza sativa)): 0; Plant response rating, Sedge, Umbrella [18]: 65
